Experimental data: patent publication US12257325B2, “Chelating platform for delivery of radionuclides” (priority 2016, dated 2025)

Key:
[1] = cited from earlier work
[2] = Incremental spectrophotometric titrations: stability constants of Zr(IV) complexes (DTPA competition); type: physicochemical; conditions: 1 equivalent of Zr(IV); calculated speciation diagram
Procedure: (§1) Solution Thermodynamics. All titrant solutions were degassed by boiling for 1 h while being purged under Ar. Carbonate-free 0.1 M KOH was prepared from concentrate (J.T Baker Dilut-It) and was standardized by titrating against 0.1 M potassium hydrogen phthalate (99.95%, Sigma Aldrich). Solutions of 0.1 M HCl were similarly prepared and were standardized by titrating against TRIS (99.9%, J.T. Baker). The glass electrode (Metrohm-Micro Combi-response to [H+]) used for the pH measurements was calibrated at 25.0° C. and at an ionic strength of 0.1 M (KCl) before each potentiometric or spectrophotometric titration. The calibration data were analyzed using the program GLEE (Gans & O'Sullivan, Talanta, 2000, 51 (1): 33-37) to refine for the E° and slope. […]
(§2) Incremental Spectrophotometric Titrations. […] For the 3,4,3-LI(CAM) protonation (and Eu(III)-3,4,3-LI(CAM) complexes), titrations were performed with an initial concentration of 50 μM of 3,4,3-LI(CAM) (and 50 μM of Eu(III)) resulting in absorbance values included between 0 and 1.0 throughout the titration. […]
(§3) Data Treatment. […] All metal and chelator concentrations were held at estimated values determined from the volume of standardized stock solutions. All species formed with 3,4,3-LI(CAM) were considered to have significant absorbance to be observed in the UV-vis spectra and were therefore included in the refinement process. […]

[3] = Incremental spectrophotometric titrations: stability constants of Eu(III) complexes; type: physicochemical; conditions: 1 equivalent of Eu(III); calculated speciation diagram
Procedure: as §1, §2, §3

[4] = Incremental spectrophotometric titrations: protonation constants of 3,4,3-LI(CAM); type: physicochemical; conditions: I=0.1 M (KCl), T=25° C.; lower values = higher acidity
Procedure: as §1, §2, §3

[5] = target: T1, recombinant wild-type Scn (Homo sapiens, UniProt P80188); assay: Fluorescence Quenching Binding Assay
T1 construct: made in house
Procedure: Metal, Chelator, and Protein Working Solutions. The trivalent lanthanide Ln(III) working stock solutions were prepared in standardized 0.1 M HCl. A Zr(IV) stock solution was prepared by dissolving ZrCl4 in 3.0 M H2SO4, to prevent hydrolysis. The metal salt ZrCl4 was handled and stored in a glovebox kept under inert atmosphere. The Zr(IV) stock solution was standardized against EDTA, with xylene orange as the indicator (Welcher, F. J. The analytical uses of ethylenediamine tetraacetic acid; 1958). A Th(IV) stock solution was prepared in 0.1 M H2SO4. […]
Fluorescence Quenching Binding Assay. […] Fluorescence quenching of Scn was measured after each titrant addition on a HORIBA Jobin Yvon IBH FluoroLog-3 spectrofluorimeter, with 3 nm slit band-pass, using the characteristic excitation and emission wavelengths λexc=280 and λem=320-360 nm. The intrinsic fluorescence in proteins is generally attributed to tryptophan residues; two residues W31 and W79 are found in the proximity of the Scn binding site. Fluorescence values were corrected for dilution upon addition of titrant. Fluorescence data were analyzed by nonlinear regression analysis of fluorescence response versus chelator concentration using a one-site binding model as described elsewhere. […]

[6] = Incremental spectrophotometric titrations: stability constants of Th(IV) complexes (DTPA competition); type: physicochemical; conditions: 1 equivalent of Th(IV); calculated speciation diagram
Procedure: as §1, §2, §3

[7] = In Vivo Biodistribution Assay with ^238Pu tracer; design: species or system CD-1 mice; conditions: mice, intravenous
Procedure: In Vivo Biodistribution Assay. All procedures and protocols used in the presented in vivo studies were reviewed and approved by the Institutional Animal Care and Use Committee at Lawrence Berkeley National Laboratory and performed in AAALAC accredited facilities. The animals used were adult female CD-1 mice (180±7 days old, 40.8±5.8 g). Solutions of ^238Pu complexed by 3,4,3-LI(CAM) and Scn:3,4,3-LI(CAM) were prepared in situ at molar ratios protein:ligand:^238Pu of 0:100:1 and 100:100:1, respectively by mixing and incubating the appropriate quantities of ^238Pu(NO3)4, ligand, and protein in phosphate-buffered saline (PBS) to reach a ^238Pu concentration of 12 ng L-1. Protein solutions were washed thrice with PBS using 10 kDa molecular weight cut-off membrane-based centrifugal filters, and all solutions were filter-sterilized (0.22 μm) prior to injection. Under isoflurane anesthesia, groups of three normally fed mice were injected intravenously with 0.2 mL of a complex solution (370 Bq per mouse). After injection of the ^238Pu tracer, mice were weighed, identified, and housed in groups of three in plastic stock cages lined with a 0.5 cm layer of highly absorbent low-ash pelleted cellulose bedding (Alpha-dri) for separation of urine and feces. Mice were given water and food ad libitum and euthanized at 4, 24, or 48 h after tracer injection. All experiments using ^238Pu tracers were managed as metabolic balance studies, in which tissues and excreta were analyzed for ^238Pu by liquid scintillation counting on a Perkin Elmer Packard Tri-Carb model B4430. The methods of sample collection, preparation, radioactivity measurements, and data reduction have been published previously (Sturzbecher-Hoehne, et al., Dalton Transactions, 2011, 40 (33): 8340-8346: Kullgren, et al., Toxicology mechanisms and methods, 2013, 23 (1), 18-26; Durbin, et al., Health physics 2000, 78 (5): 511-521). Those methods provide quantitative measurements of radioactivity in biological samples; material recoveries averaged 99% of the amount injected in these experiments.
Biodistribution Evaluation. To evaluate the in vivo retention and excretion patterns of M(IV)-3,4,3-LI(CAM) complexes and their Scn adducts, ^238Pu(IV) was used as a radiolabel. ^238Pu(IV) likely behaves similarly to Th(IV) and Zr(IV) (the ionic radius of Pu^4+ is included between those of Th^4+ and Zr^4+) (Sturzbecher-Hoehne, et al., Inorganic Chemistry, 2015, 54 (7): 3462-3468) but allows for more accurate metabolic balance experiments due to its relatively long radioactive half-life (87.8 yr) and low specific activity (0.63 TBq/g), compared to the therapeutic ^227Th (18.68 d; 1139 TBq/g) and imaging ^89Zr (78.42 h; 16,630 TBq/g) isotopes. […] In this in vivo stability experiment, ^238Pu-ligand complex solutions were formed in situ (Ligand:Pu and Scn:Chelator:Pu ratios of 100:1 and 100:100:1, respectively) and administered intravenously. Mice were euthanized 4, 24, or 48 h after the metal injection, and tissues and excreta were radioanalyzed for ^238Pu content (FIG. 14).

Which results are given for `O=C(NCCCN(CCCCN(CCCNC(=O)c1cccc(=O)n1O)C(=O)c1cccc(=O)n1O)C(=O)c1cccc(=O)n1O)c1cccc(=O)n1O` [3,4,3-LI(1,2-HOPO)]?
pH at which 4+ metal complexes are formed ([1]; 4+ metals, very acidic conditions): < 0; pH at which Eu(III) species appear ([1]; Eu(III), same conditions): 1

Which “pH at which complexes start forming” value [2] does the source give for `O=C(NCCCN(CCCCN(CCCNC(=O)c1cccc(O)c1O)C(=O)c1cccc(O)c1O)C(=O)c1cccc(O)c1O)c1cccc(O)c1O` [3,4,3-LI(CAM)] here?
The value was about 3.

What about the “pH at which complexation starts” value [3] of the same molecule?
Its value is 5.

And the “overall acidity ΣpKa5-8” value [4]?
Its value is 45.4.

And the Kd [5]?
Its Kd is 1.2 ± 0.4 nM.

And the “pH at which complexes start forming” value [6]?
The value was about 3.

B1: Scn:[Pu^IV(3,43-LI(CAM))]: siderocalin adduct of the ^238Pu(IV) complex of 3,4,3-LI(CAM), Scn:chelator:Pu 100:100:1 (conjugate, UniProt P80188 21-198, looked up)
Neutrophil …: QDSTSDLIPAPPLSKVPLQQNFQDNQFQGKWYVVGLAGNAILREDKDPQKMYATIYELKEDKSYNVTSVLFRKKKCDYWIRTFVPGCQPGEFTLGNIKSYPGLTSYLVRVVSTNYNQHAMVFFKKVSQNREYFKITLYGRTKELTSELKENFIRFSKSLGLPENHIVFPVPIDQCIDG
modifications: bound Pu(IV)-3,4,3-LI(CAM) complex
Which in vivo stability [7] does the source give for B1 here?
Its in vivo stability is “high in vivo stability”.

And the “injected ^238Pu excreted by 48 hours” value ([7]; 370 Bq per mouse, 48 h)?
The value was 30%.

And the “^238Pu found in the kidneys” value ([7]; 4 h after administration)?
Its value is “up to 52%”.

And the “^238Pu in urine versus feces” value ([7]; all time points (4, 24, 48 h))?
The value was “more ^238Pu was found in the urine than in the feces”.

And the “retention and excretion pattern (kidney vs. liver)” value ([7]; early time points)?
Its value is “favors elimination through the renal system”.
